Test results reported in ChEMBL document CHEMBL1159175, “Thiophenoxy peptides: A new class of HIV replication inhibitors” (Bioorg Med Chem Lett, 1996).
Square brackets hold non-standard residues; d marks the D form. Peptide text beside a SMILES is read from it. * marks the point of attachment. Fmoc = O=C(OCC1c2ccccc2-c2ccccc21)*; Gly(SPh) = N[C@@H](Sc1ccccc1)C(=O)O

Key:
[1] = Therapeutic index was determined by the ratio of ID50/IC50 (ID50: Dose required to cause death of 50% of uninfected MT-4 cells); type: cell-based, MT4; conditions: human, MT-4 cells (uninfected, for ID50); read-out: TI
MT4 [2] = assay: In vitro antiviral activity against HIV-1 replication in MT-4 cells was determined by 50% inhibition of syncytia formation; type: functional, cell-based; conditions: Homo sapiens
MT4 [3] = assay: In vitro antiviral activity against HIV-1 replication in MT-4 cells was determined by 50% inhibition of syncytia formation: Inactive; type: functional, cell-based, Homo sapiens
MT4 [4] = assay: In vitro antiviral activity against HIV-1 replication in MT-4 cells was determined by 50% inhibition of syncytia formation: Inactive / toxic; type: functional, cell-based, Homo sapiens

Molecule	selectivity ratio [1]	IC50 (MT4 [2]) [µM]	IC50 (MT4 [3])	IC50 (MT4 [4])
CC[C@H](C)[C@H](N)C(=O)N[C@@H](CCCN=C(N)N)C(=O)N[C@@H](CCCCN)C(=O)N[C@H](C(=O)N[C@@H](CC(C)C)C(=O)N[C@@H](Sc1ccccc1)C(=O)N[C@@H](CC(C)C)C(=O)N[C@@H](CC(=O)O)C(=O)NCC(N)=O)[C@@H](C)CC (H-IRKIL[Gly(SPh)]LDG-NH2)	50	5		
H-IRKILFLDGI-OH			Not Active	
CC(C)CC(NC(=O)OC(C)(C)C)C(=O)NC(Sc1ccccc1)C(=O)O (stereo not given)			Not Active	
C=CCOC(=O)C(NC(=O)C(CC(C)C)NC(=O)OC(C)(C)C)Sc1ccccc1 (stereo not given)			Not Active	
CC[C@H](C)[C@H](NC(=O)OCC1c2ccccc2-c2ccccc21)C(=O)N[C@@H](CCCN=C(N)N)C(=O)N[C@@H](CCCCN)C(=O)N[C@H](C(=O)N[C@@H](CC(C)C)C(=O)N[C@@H](Sc1ccccc1)C(=O)N[C@@H](CC(C)C)C(=O)N[C@@H](CC(=O)O)C(=O)NCC(N)=O)[C@@H](C)CC (Fmoc-IRKIL[Gly(SPh)]LDG-NH2)				Toxic
CC[C@H](C)[C@H](N)C(=O)N[C@@H](CCCN=C(N)N)C(=O)N[C@@H](CCCCN)C(=O)N[C@H](C(=O)N[C@@H](CC(C)C)C(=O)N[C@@H](Sc1ccccc1)C(=O)N[C@@H](CC(C)C)C(=O)N[C@@H](CC(=O)O)C(=O)NCC(=O)N[C@H](C(=O)O)[C@@H](C)CC)[C@@H](C)CC (H-IRKIL[Gly(SPh)]LDGI-OH)	10	10		
CC[C@H](C)[C@H](NC(=O)CNC(=O)[C@H](CC(=O)O)NC(=O)[C@H](CC(C)C)NC(=O)[C@@H](NC(=O)[C@H](CC(C)C)NC(=O)[C@@H](NC(=O)[C@H](CCCCN)NC(=O)[C@H](CCCN=C(N)N)NC(=O)[C@@H](NC(=O)OCC1c2ccccc2-c2ccccc21)[C@@H](C)CC)[C@@H](C)CC)Sc1ccccc1)C(=O)O (Fmoc-IRKIL[Gly(SPh)]LDGI-OH)	10	100		
